Reference: US20190343828A1, “CAMPTOTHECIN PEPTIDE CONJUGATES” (SEATTLE GENETICS, INC., priority 2018, published 2019)

Columns and labels:
[1] = tested on: melanoma cells (SK-MEL-5); assay: In vitro cytotoxicity, CellTiter-Glo 96 h, SK-MEL-5; conditions: Homo sapiens, SK-MEL-5, read-out: Cytotoxic potency as free drug, IC50, SK-MEL-5
[2] = tested on: Burkitt's lymphoma cells (Ramos); assay: In vitro cytotoxicity, CellTiter-Glo 96 h, Ramos; conditions: Homo sapiens, read-out: Cytotoxic potency as free drug, IC50, Ramos
[3] = tested on: multiple drug resistant acute promyelocytic leukemia cells (HL-60/RV); assay: In vitro cytotoxicity, CellTiter-Glo 96 h, HL60/RV; conditions: Homo sapiens, HL-60, read-out: Cytotoxic potency (IC50 class), HL60/RV
[4] = tested on: pancreatic cancer cells (BxPC3); assay: In vitro cytotoxicity, CellTiter-Glo 96 h, BxPC3; conditions: Homo sapiens, BXPC-3, read-out: Cytotoxic potency (IC50 class), BxPC3
[5] = tested on: Hodgkin's lymphoma cells (L540cy); assay: In vitro cytotoxicity, CellTiter-Glo 96 h, L540cy; conditions: read-out: Cytotoxic potency (IC50 class), L540cy
Description: (§1) In vitro potency was assessed on multiple cancer cell lines. All cell lines were authenticated by STR profiling at IDEXX Bioresearch and cultured for no more than 2 months after resuscitation. Cells cultured in log-phase growth were seeded for 24 hours in 96-well plates containing 150 μl RPMI 1640 supplemented with 20% FBS. Serial dilutions of antibody-drug conjugates in cell culture media were prepared at 4× working concentrations, and 50 μl of each dilution was added to the 96-well plates. Following addition of test articles, cells were incubated with test articles for 4 days at 37° C. After 96 hours, growth inhibition was assessed by CellTiter-Glo® (Promega, Madison, Wis.) and luminescence was measured on a plate reader.
Cell viability was determined by CellTiter-Glo staining after 96 h exposure to ADC.

[6] = tested on: multiple myeloma cells (MM.1R); assay: In vitro cytotoxicity, CellTiter-Glo 96 h, MM.1R; conditions: read-out: Cytotoxic potency (IC50 class), MM.1R
Description: as §1
(§2) Cell viability was determined by CellTiter-Glo staining after 96 h exposure to ADC. […] Ag1 is an antibody targeting a ubiquitous and readily internalizable antigen on cancer cells, Ag2 is cAC10 antibody targeting CD30(+) cancer cells, Ag3 is h1F6 antibody targeting CD70(+) cancer cells, Ag4 is hMEM102 antibody targeting CD48(+) cancer cells, Ag5 is h20F3 antibody targeting NTB-A expressing cancer cells, and h00 is a non-binding control antibody.

[7] = tested on: B-lymphocyte cancer cells (SU-DHL-4); assay: In vitro cytotoxicity, CellTiter-Glo 96 h, SU-DHL-4; conditions: Homo sapiens, SU-DHL-4, read-out: Cytotoxic potency as free drug, IC50, SU-DHL-4
Description: as §1, §2

[8] = tested on: acute promyelocytic leukemia cells (HL-60); assay: In vitro cytotoxicity, CellTiter-Glo 96 h, HL-60; conditions: Homo sapiens, HL-60, read-out: Cytotoxic potency (IC50 class), HL-60
[9] = tested on: B-lymphocyte cancer cells (U266); assay: In vitro cytotoxicity, CellTiter-Glo 96 h, U266; conditions: Homo sapiens, U-266, read-out: Cytotoxic potency as free drug, IC50, U266
Description: as §1, §2

[10] = tested on: acute myeloid leukemia cells (MOLM13); assay: In vitro cytotoxicity, CellTiter-Glo 96 h, MOLM13; conditions: Homo sapiens, MOLM-13, read-out: Cytotoxic potency as free drug, IC50, MOLM13
[11] = tested on: renal carcinoma cells (786-O); assay: In vitro cytotoxicity, CellTiter-Glo 96 h, 786-O; conditions: Homo sapiens, 786-0, read-out: Cytotoxic potency (IC50 class), 786-O

SMILES	IC50 [1] [nM]	IC50 [2] [nM]	IC50 [3] [nM]	IC50 [4] [nM]	IC50 [5] [nM]	IC50 [6] [nM]	IC50 [7] [nM]	IC50 [8] [nM]	IC50 [9] [nM]	IC50 [10] [nM]	IC50 [11] [nM]
CC[C@@]1(O)C(=O)OCc2c1cc1n(c2=O)Cc2c-1nc1cc3c(cc1c2CNC1CCCCC1)OCO3 [Compound 5d]	1 to 10	1 to 10	1 to 10	1 to 10	1 to 10	1 to 10	1 to 10	10 to 100	1 to 10	1 to 10	1 to 10
CC[C@@]1(O)C(=O)OCc2c1cc1n(c2=O)Cc2c-1nc1cc3c(cc1c2CNCc1ccc(N)cc1)OCO3 [Compound 5e]	10 to 100	1 to 10	100 to 1000	10 to 100	1 to 10	1 to 10	1 to 10	10 to 100	10 to 100	1 to 10	10 to 100
CC[C@@]1(O)C(=O)OCc2c1cc1n(c2=O)Cc2c-1nc1cc3c(cc1c2CNCCCCO)OCO3 [Compound 5f]	1 to 10	1 to 10	100 to 1000	10 to 100	1 to 10	1 to 10	1 to 10	10 to 100	1 to 10	1 to 10	1 to 10
CC[C@@]1(O)C(=O)OCc2c1cc1n(c2=O)Cc2c-1nc1cc3c(cc1c2CN1CCOCC1)OCO3 [Compound 5g]	1 to 10	0.1 to 1	1 to 10	1 to 10	1 to 10	1 to 10	1 to 10	1 to 10	1 to 10	1 to 10	1 to 10
CC[C@@]1(O)C(=O)OCc2c1cc1n(c2=O)Cc2c-1nc1cc3c(cc1c2CN1CCN(C)CC1)OCO3 [Compound 5h]	10 to 100	1 to 10	10 to 100	10 to 100	1 to 10	1 to 10	1 to 10	10 to 100	10 to 100	1 to 10	1 to 10
